According to patent US20250312497A1, “METHOD OF TREATING PROSTATE CANCER” (Novartis AG, priority 2022, published 2025):
Several values for one entry are separate records, joined by “and”; a condition that tells them apart may be missing. Equal values may be shown once.

Test system: PSMA-positive mCRPC participants
Test: PSMAfore phase III: adverse events, serious adverse events, safety topics and deaths (safety set)
Type: in vivo, human
Conditions: DCO 2 Oct 2022
[1] = most common AEs (>10% in either arm)

## O=C([O-])CN1CCN(CC(=O)[O-])CCN(CC(=O)NCC2CCC(C(=O)N[C@@H](Cc3ccc4ccccc4c3)C(=O)NCCCC[C@H](NC(=O)N[C@@H](CCC(=O)O)C(=O)O)C(=O)O)CC2)CCN(CC(=O)[O-])CC1.[177Lu+3] (stereo partly shown) [[177Lu]Lu-PSMA-617, lutetium (177Lu) vipivotide tetraxetan]
  Fatal serious AEs: Fatal serious AEs: 1.8% in [177Lu]Lu-PSMA-
  death during the study due to study indication: 4.4%
  most frequent serious adverse event: urinary tract infection: 1.8%
  on-treatment deaths due to Study indication: 0%
  subjects who received at least one dose and died during the study: 18 (8%) n (%)
ARDT prior to crossover
  AEs leading to discontinuation, Treatment-related: 1.8%
  Grade≥3 AEs, Treatment-related: 6.6%
  Serious AEs, Treatment-related: 2.2%
[1]
  Anaemia: 16.8%
  Arthralgia: 11.5%
  Asthenia: 23.9%
  Back pain: 7.1%
  COVID-19: 11.1%
  Constipation: 15.5%
  Decreased appetite: 12.8%
  Diarrhoea: 12.4%
  Dry mouth: 44.7%
  Fatigue: 18.1%
  Nausea: 25.2%
Safety set
  On-treatment deaths: Number of subjects who died: 4 (1.8%) n (%) and 4 (1.8) n (%)
  On-treatment deaths: Other: 4 (1.8) n (%)
  On-treatment deaths: Study indication: 0 n (%)
Safety set, All Grades
  AE preferred term: Anaemia: 38 (16.8) n (%)
  AE preferred term: Arthralgia: 26 (11.5) n (%)
  AE preferred term: Asthenia: 54 (23.9) n (%)
  AE preferred term: Back pain: 16 (7.1) n (%)
  AE preferred term: COVID-19: 25 (11.1) n (%)
  AE preferred term: Constipation: 35 (15.5) n (%)
  AE preferred term: Decreased appetite: 29 (12.8) n (%)
  AE preferred term: Diarrhoea: 28 (12.4) n (%)
  AE preferred term: Dry mouth: 101 (44.7) n (%)
  AE preferred term: Fatigue: 41 (18.1) n (%)
  AE preferred term: Nausea: 57 (25.2) n (%)
  Adverse events (subjects with at least one event): 202 (89.4) n (%)
  Adverse events leading to discontinuation: 9 (4.0) n (%)
  Adverse events leading to discontinuation, Treatment-related: 4 (1.8) n (%)
  Adverse events leading to dose adjustment: 5 (2.2) n (%)
  Adverse events leading to dose interruption: 16 (7.1) n (%)
  Adverse events requiring additional therapy: 121 (53.5) n (%)
  Adverse events, Treatment-related: 170 (75.2) n (%)
  Fatal serious adverse events: 4 (1.8) n (%)
  Fatal serious adverse events, Treatment-related: 0 n (%)
  Safety topic: Dry eye: 6 (2.7) n (%)
  Safety topic: Dry mouth: 101 (44.7) n (%)
  Safety topic: Fractures: 3 (1.3) n (%)
  Safety topic: Hepatotoxicity: 20 (8.8) n (%)
  Safety topic: Intracranial haemorrhage: 2 (0.9) n (%)
  Safety topic: Myelosuppression: 56 (24.8) n (%)
  Safety topic: QT prolongation: 2 (0.9) n (%)
  Safety topic: Radiotoxicity including inadvertent exposure: 0 n (%)
  Safety topic: Renal toxicity: 11 (4.9) n (%)
  Safety topic: Second primary malignancies: 3 (1.3) n (%)
  Serious AE preferred term: Anaemia: 2 (0.9) n (%)
  Serious AE preferred term: Haematuria: 0 n (%)
  Serious AE preferred term: Pain: 1 (0.4) n (%)
  Serious AE preferred term: Spinal cord compression: 2 (0.9) n (%)
  Serious AE preferred term: Urinary retention: 1 (0.4) n (%)
  Serious AE preferred term: Urinary tract infection: 4 (1.8) n (%)
  Serious adverse events (subjects with at least one event): 35 (15.5) n (%)
  Serious adverse events, Treatment-related: 5 (2.2) n (%)
Safety set, Grade >=3
  AE preferred term: Anaemia: 10 (4.4) n (%)
  AE preferred term: Arthralgia: 0 n (%)
  AE preferred term: Asthenia: 1 (0.4) n (%)
  AE preferred term: Back pain: 2 (0.9) n (%)
  AE preferred term: COVID-19: 1 (0.4) n (%)
  AE preferred term: Constipation: 1 (0.4) n (%)
  AE preferred term: Decreased appetite: 0 n (%)
  AE preferred term: Diarrhoea: 0 n (%)
  AE preferred term: Dry mouth: 1 (0.4) n (%)
  AE preferred term: Fatigue: 0 n (%)
  AE preferred term: Nausea: 0 n (%)
  Adverse events (subjects with at least one event): 53 (23.5) n (%)
  Adverse events leading to discontinuation: 6 (2.7) n (%)
  Adverse events leading to discontinuation, Treatment-related: 3 (1.3) n (%)
  Adverse events leading to dose adjustment: 1 (0.4) n (%)
  Adverse events leading to dose interruption: 9 (4.0) n (%)
  Adverse events requiring additional therapy: 34 (15.0) n (%)
  Adverse events, Treatment-related: 15 (6.6) n (%)
  Fatal serious adverse events: 4 (1.8) n (%)
  Fatal serious adverse events, Treatment-related: 0 n (%)
  Safety topic: Dry eye: 0 n (%)
  Safety topic: Dry mouth: 1 (0.4) n (%)
  Safety topic: Fractures: 1 (0.4) n (%)
  Safety topic: Hepatotoxicity: 8 (3.5) n (%)
  Safety topic: Intracranial haemorrhage: 1 (0.4) n (%)
  Safety topic: Myelosuppression: 19 (8.4) n (%)
  Safety topic: QT prolongation: 1 (0.4) n (%)
  Safety topic: Radiotoxicity including inadvertent exposure: 0 n (%)
  Safety topic: Renal toxicity: 2 (0.9) n (%)
  Safety topic: Second primary malignancies: 1 (0.4) n (%)
  Serious AE preferred term: Anaemia: 1 (0.4) n (%)
  Serious AE preferred term: Haematuria: 0 n (%)
  Serious AE preferred term: Pain: 1 (0.4) n (%)
  Serious AE preferred term: Spinal cord compression: 2 (0.9) n (%)
  Serious AE preferred term: Urinary retention: 1 (0.4) n (%)
  Serious AE preferred term: Urinary tract infection: 3 (1.3) n (%)
  Serious adverse events (subjects with at least one event): 30 (13.3) n (%)
  Serious adverse events, Treatment-related: 4 (1.8) n (%)
Safety set, preferred term
  On-treatment deaths: COVID-19 pneumonia: 1 (0.4) n (%)
  On-treatment deaths: Cardiac arrest: 1 (0.4) n (%)
